Source: publication PMC2725291, “Genetic and Molecular Basis of Individual Differences in Human Umami Taste Perception” (PLoS ONE, 2009)
Counter-ions that a name gives are not always drawn.

Key:
[1] = test system: 254 Japanese subjects; assay: Taste recognition threshold measurement (staircase method); type: in vivo, human; details: other basic taste stimuli, Figure S1
Source text: A total of 254 healthy, non-obese, non-diabetic Japanese volunteers [male/female: 141/113, age: 20–36, body mass index (BMI); 16.5–24.8] participated in this study. The purpose of the study as well as the methods and procedure were explained to the participants and the patients in this manuscript have given written informed consent. All protocols were approved by the local ethics committee at Kyushu University. Subjects were asked to refrain from consuming alcohol the day before testing, caffeine on the day of testing, and food during the experimentation period. The inclusion criteria were satisfactory state of oral hygiene, non-smoking, regular work, sleep, and meal schedules.
As MSG contains sodium, great care was taken to compare individual sensitivities to MSG relative to NaCl. […] The differences in concentrations in the present study were in 0.3 log steps, which mean step-wise increases in concentration by a factor of 2.0. All solutions were made up in distilled water and used at room temperature. The testing procedure was the staircase-method modified from Pasquet et al.. Each subject evaluated all 7 tastants. The seven series of solutions were presented one after another within a single section. Within each series, the solutions with each 2.0 ml were applied to the whole tongue of each subject with a pipet in order of ascending concentrations. The subjects were asked not to swallow test solutions and rinse their mouth between two solutions with distilled water. The subject was requested to correctly name the taste quality in each series. Once the taste of two successive concentrations was recognized successfully, the subject was given the previous unrecognized concentration (first reversal). The points at which concentration sequence changed from a decrease to an increase or vice versa were designated “reversals”. The procedure was terminated after five reversals, and the threshold was calculated as the mean of the concentration values of the last four reversals.
Student's t-test was used for detection of differences in the mean recognition thresholds between males and females. The χ^2 test was used for checking Hardy-Weinberg Equilibrium (HWE) for the genotype frequencies in samples to control genotyping errors, for detection of differences in genotype and allele frequencies between high and low taste recognition threshold groups. Yates'χ^2 test was used when the number was less than 10. The mean values (the center±S.E. of gaussian curve on X-axis) in the distribution of recognition thresholds defined by TAS1R1/TAS1R3 haplotypes (TAS1R1-372A/TAS1R3-757R homozygotes, TAS1R1-372T/TAS1R3-757R homozygotes, homo- and heterozygotes containing TAS1R3-757C) were calculated using gauss fit function of Origin 5.0 (OriginLab Corp). For Ca^2+ imaging analysis, data were normalized to response to 10 µM ISO, and mean values (±S.E.) were calculated from 10∼18 independent analyses. EC50 values were calculated from individual cumulative concentration-response data using sigmoid fit functions of Origin 5.0. One factor ANOVAs were conducted for detection of differences in the distributions of recognition thresholds for umami substances among 3 groups defined by TAS1R1/TAS1R3 haplotypes, and in the responses to 5, 20 and 50 mM MSG or 0.3, 5 and 50 mM M+I among TAS1R1/TAS1R3 variants in Ca^2+ imaging analysis. When the ANOVA was significant, post-hoc Student's t-test or Fisher's PLSD test was performed to compare individual means at each umami compound or concentration. Significance level was 0.05.

[2] = molecular target: T1, TAS1R1-372A and TAS1R3-757R (Homo sapiens, UniProt Q7RTX0+Q7RTX1, C757R); assay: Ca2+ imaging (bath perfusion) in HEK cells transfected with TAS1R1-372A, TAS1R3-757R and Gα16-i3; type: cell-based
T1 construct: expressed in transfected cells; host or cells: HEK293
T1 sequence (Q7RTX1 21-841): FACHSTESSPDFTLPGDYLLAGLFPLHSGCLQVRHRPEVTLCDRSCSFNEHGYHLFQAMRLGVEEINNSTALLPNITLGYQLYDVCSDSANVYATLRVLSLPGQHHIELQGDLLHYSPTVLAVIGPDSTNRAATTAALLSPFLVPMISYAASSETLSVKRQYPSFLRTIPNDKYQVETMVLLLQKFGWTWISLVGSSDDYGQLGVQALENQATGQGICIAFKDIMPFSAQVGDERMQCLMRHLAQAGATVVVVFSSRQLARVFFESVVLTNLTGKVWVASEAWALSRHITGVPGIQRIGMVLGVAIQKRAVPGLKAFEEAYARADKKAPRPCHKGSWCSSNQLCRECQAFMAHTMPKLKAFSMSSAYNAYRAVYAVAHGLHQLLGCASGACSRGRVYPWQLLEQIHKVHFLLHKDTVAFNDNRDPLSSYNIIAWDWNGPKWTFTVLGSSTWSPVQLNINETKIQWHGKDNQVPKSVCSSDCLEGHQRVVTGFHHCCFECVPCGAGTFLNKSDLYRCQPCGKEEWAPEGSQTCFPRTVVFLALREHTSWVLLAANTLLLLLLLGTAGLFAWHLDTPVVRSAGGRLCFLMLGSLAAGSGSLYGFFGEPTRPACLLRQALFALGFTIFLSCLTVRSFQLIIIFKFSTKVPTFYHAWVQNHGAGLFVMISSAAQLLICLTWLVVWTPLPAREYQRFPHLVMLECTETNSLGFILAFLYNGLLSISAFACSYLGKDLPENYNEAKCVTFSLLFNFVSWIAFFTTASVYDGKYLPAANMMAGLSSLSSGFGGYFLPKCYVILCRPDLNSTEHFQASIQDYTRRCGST
T1 sequence (Q7RTX0 21-852 C757R): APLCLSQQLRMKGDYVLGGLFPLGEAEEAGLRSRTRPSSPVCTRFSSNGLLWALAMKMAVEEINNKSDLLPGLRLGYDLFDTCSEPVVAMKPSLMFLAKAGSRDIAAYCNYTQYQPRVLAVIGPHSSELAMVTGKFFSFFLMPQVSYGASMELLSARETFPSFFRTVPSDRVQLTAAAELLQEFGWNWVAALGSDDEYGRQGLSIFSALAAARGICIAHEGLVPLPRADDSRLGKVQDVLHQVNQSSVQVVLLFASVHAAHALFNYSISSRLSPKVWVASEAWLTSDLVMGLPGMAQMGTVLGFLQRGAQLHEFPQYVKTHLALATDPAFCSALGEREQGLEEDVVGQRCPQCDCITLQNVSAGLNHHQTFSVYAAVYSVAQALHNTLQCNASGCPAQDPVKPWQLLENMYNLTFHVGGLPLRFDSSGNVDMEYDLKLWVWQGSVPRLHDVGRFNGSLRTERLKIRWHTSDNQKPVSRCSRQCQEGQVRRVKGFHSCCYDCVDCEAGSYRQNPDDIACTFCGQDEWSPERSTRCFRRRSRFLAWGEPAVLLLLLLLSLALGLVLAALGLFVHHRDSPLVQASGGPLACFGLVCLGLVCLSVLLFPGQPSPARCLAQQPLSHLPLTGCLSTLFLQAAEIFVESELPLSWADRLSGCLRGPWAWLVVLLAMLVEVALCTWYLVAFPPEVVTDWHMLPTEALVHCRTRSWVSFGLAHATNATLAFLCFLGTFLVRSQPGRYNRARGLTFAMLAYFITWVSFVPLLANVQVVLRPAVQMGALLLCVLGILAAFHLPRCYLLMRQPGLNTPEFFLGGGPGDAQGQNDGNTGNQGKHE
Procedure: HEK293 cells were cultured at 37°C under a humidified atmosphere containing 5% CO2 in Dulbecco's modified Eagle's medium supplemented with 10% fetal bovine serum. To obtain reproducible Ca^2+ responses, cells were split every 2 days before cells become confluent. Cells were discarded after 2 months of passages and new cells were prepared from frozen-stock. For calcium imaging experiments, cells were seeded onto a 35 mm recording chamber or poly-D-lysine coated 96-well black-wall, clear-bottom recording plates. After 24 hrs at 37°C, confluent cells (60∼70%) were washed in OptiMEM medium supplemented with GlutaMAX-I (invitrogen) and plasmid DNAs were transiently cotransfected into HEK293 cells using Lipofectamine2000 regent (invitrogen) (2.0 µl per 1.0 µg DNA). TAS1Rs (or their mutants) and Gαl6-i3 were transfected using 1.5 and 1.0 µg of plasmid for 35 mm recording chambers, 0.09 and 0.06 µg of plasmid per well for 96-well plates, respectively. […] Immuno staining and Ca^2+ imaging assays were performed 36∼40 hrs after transfection.
Two Ca^2+ imaging systems were used. A bath perfusion system was used for kinetics of activation. Transfected cells in 35 mm recording chambers were washed in Hank's balanced salt solution (HBSS) containing 10 mM HEPES, pH 7.4, and loaded with 3.0 µM Fluo-4 acetoxymethyl ester (invitrogen) for 1.0 hr at 37°C. The dye-loaded cells were subjected to Ca^2+ imaging. Taste solutions diluted in HBSS were applied sequentially to the cells for 30 s with a peristaltic pump at a flow rate of 1.5 ml/min, and fluorescence images were obtained using a S Fluor ×20/0.75 objective lens (Nikon) via a cooled-CCD camera (C6790, Hamamatsu Photonics) fitted to a TE300 microscope (Nikon). Acquisition and analysis of these fluorescence images used AquaCosmos software (v. 1.3, Hamamatsu Photonics). A 3 min interval was left between each tastant application to ensure that the cells were not desensitized as a result of the previous application of tastants. Responses were measured from 30 individual responding cells. […] Isoproterenol (ISO, 10 µM) was used as positive control, which stimulates endogenous β-adrenergic receptors, providing that the Gα16-dependent signal transduction cascade was functional.

[3] = test system: TAS1R1/TAS1R3 variants; assay: Ca2+ imaging (FlexStation II), comparison across receptor variants (AR, TR, AC, TC); type: cell-based, human; details: lactisole 5 mM; 20 mM MSG+0.5 mM IMP; Figure S5
Source text: Intronless human TAS1Rs and Gαl6 expression constructs were generated in the pEF-DEST51 Gateway vector (Invitrogen) by genomic DNA-based methods. To subclone each gene into the vector, a Kozak cassette was introduced at the 5′ end before the start codon. Gαl6 chimeras were generated by PCR with mutagenic primers. The carboxyl-terminal tail of Gαl6, five-residue (EINLL) was replaced by its counterpart from Gαi3 (ECGLY; Gα16-i3), Gαgust (DCGLF; Gα16-gust), and Gα16-gust44 was generated as described. The integrity of all DNA constructs was confirmed by DNA sequencing. Point mutations in TAS1Rs were made using the same overlapping PCR strategy with mutagenic primers.
HEK293 cells were cultured at 37°C under a humidified atmosphere containing 5% CO2 in Dulbecco's modified Eagle's medium supplemented with 10% fetal bovine serum. To obtain reproducible Ca^2+ responses, cells were split every 2 days before cells become confluent. Cells were discarded after 2 months of passages and new cells were prepared from frozen-stock. For calcium imaging experiments, cells were seeded onto a 35 mm recording chamber or poly-D-lysine coated 96-well black-wall, clear-bottom recording plates. After 24 hrs at 37°C, confluent cells (60∼70%) were washed in OptiMEM medium supplemented with GlutaMAX-I (invitrogen) and plasmid DNAs were transiently cotransfected into HEK293 cells using Lipofectamine2000 regent (invitrogen) (2.0 µl per 1.0 µg DNA). […]
Student's t-test was used for detection of differences in the mean recognition thresholds between males and females. […] The mean values (the center±S.E. of gaussian curve on X-axis) in the distribution of recognition thresholds defined by TAS1R1/TAS1R3 haplotypes (TAS1R1-372A/TAS1R3-757R homozygotes, TAS1R1-372T/TAS1R3-757R homozygotes, homo- and heterozygotes containing TAS1R3-757C) were calculated using gauss fit function of Origin 5.0 (OriginLab Corp). For Ca^2+ imaging analysis, data were normalized to response to 10 µM ISO, and mean values (±S.E.) were calculated from 10∼18 independent analyses.

| Compound | differences in distributions of recognition thresholds among TR, AR and TAS1R3-757C groups [1] | Ca2+ response of transfected HEK cells ([2]; 50 mM) | also measured |
| --- | --- | --- | --- |
| OC[C@H]1O[C@@](CO)(O[C@H]2O[C@H](CO)[C@@H](O)[C@H](O)[C@H]2O)[C@@H](O)[C@@H]1O [sucrose] | no such differences | did not respond |  |
| O=C1NS(=O)(=O)c2ccccc21 [saccharin] |  |  | Ca2+ response of transfected HEK cells ([2]; 1 mM (data not shown)): did not respond |
| OC[C@H]1OC(O)[C@H](O)[C@@H](O)[C@@H]1O (stereo partly shown) [glucose] |  | did not respond |  |
| NC(=S)Nc1ccccc1 [PTC, phenylthiocarbamide] | no such differences |  |  |
| COc1ccc(OC(C)C(=O)O)cc1 (stereo not shown) [lactisole] |  |  | inhibition effect on the responses of TAS1R1/TAS1R3 variants [3]: clearly observed |
| [Cl-].[Na+] [NaCl] | no such differences | did not respond |  |
| Cl [HCl] | no such differences |  |  |
| C[C@H](NC(=NCC(=O)O)Nc1ccc(C#N)cc1)c1ccccc1 [SC45647] |  |  | Ca2+ response of transfected HEK cells ([2]; 0.3 mM (data not shown)): did not respond |
